Tests used:
Acute toxicity = assay type: in vivo; conditions: mice
Procedure: The LDO or the dose at which there was no mortality after 8 days was determined on mice and the DLO for the compounds of Example 1,3 and 4 was 100, 100 and 200 mg/kg, respectively.

Kappa opiate receptor = biological target: T1, Kappa opiate receptor (Cavia porcellus, UniProt P41144); experiment: In vitro bonding of Kappa opiate receptor; assay type: binding; conditions: guinea pig cerebellum membranes; 1 nM 3H ethylketocyclazocine; pH 7.7; 25° C., 40 minutes; read-out: CI50 (50% inhibiting concentration)
T1 construct: Membrane culots preserved at -30° C. for about 30 days and prepared from guinea pig cerebellum; from tissue; host or cells: guinea pig cerebellum membranes
Procedure: Membrane culots preserved at -30° C. for about 30 days and prepared from guinea pig cerebellum were suspended in buffered Tris pH of 7.7. 2 ml fractions were placed in hemolysis tubes and 1 nM of 9^3 H ethylketocyclazocine and 5×10^-6 M of test compound were added thereto (in triple). When the test product displaced more than 50% of the radioactivity tied specifically to the receptor, the test was repeated with a range of seven doses to determine the dose which inhibited by 50% the radioactivity tied specifically to the receptor which is deemed CI50. The non-specific bond was determined by the addition of the known product, U-50488 H [Lahti et al., Life Science, Vol. 31 (1982), p 2257], at 10^-5 M (in triple). The mixture was incubated at 25° C. for 40 minutes, placed in a bath at 0° C. for 5 minutes and vacuum filtered. The product was rinsed with buffered Tris at a pH of 7.7 and the radioactivity was counted in the presence of Trition scintillation. The results were expressed directly as the 50% inhibiting concentration (CI50) or the concentration of the test compound which reduced by 50% radioactivity specificity fixed to the standard receptor.

Diuretic activity = assay type: in vivo; conditions: male Sprague-Dawley rats; 1 mg/kg; period t1h-t2h
Procedure: Male rats of the Sprague-Dawley strain weighing 180 to 200 g were fasted for 17 hours before the test but received as much water as they desired. Groups of 8 rats were used for the test doses with the rats receiving the test compound or only the vehicle. The remaining volume was measured hourly for 2 hours after administration of the compound. At the end of this period, the urine was collected and the activity of the compounds was expressed as the percentage of variation calculated as the urinary volume in the period t1h -t2h.

[1] = Antiarythmic activity, aconitine perfusion in anesthesized rats; assay type: in vivo; conditions: male rats; 10 mg/kg intravenous, 5 minutes before aconitine perfusion 10 μg/mn; vs controls
Procedure: Tracheotomized male rats weighing 300 to 350 g were anesthesized intraperitonally with 1.20 g/kg of urethane and were subjected to artifical respiration of 40 to 50 insufflations of 3 ml/minute. Needles were implanted subcutaneously to register the electrocardiogram of the rats by the signal of DII derivative. The test compounds were administered intraveinously and 5 minutes later, the jugular veins of the rats were perfused with 10 μg/mn or 0.2 ml of an aconitine solution and the time of appearance of troubles in the cardiac rhythm was noted. The results were expressed as a percentage of the elongation of time of the appearance of the cardiac rhythm troubles as compared to the controls and as a function of the dose of the test compound.

[2] = In vivo analgesic activity, hot plate test; conditions: Mus musculus, sc, 0.5 h; female mice, copper plate 56° C.; subcutaneous; 30 minutes after treatment; read-out: DA100 (dose which increased the reaction time 100%)
Procedure: In the hot plate test, female mice weighing 22 to 24 g were placed individually on a copper plate maintained at 56° C. and the reaction to the pain was manifested by licking of the paws by the animal. […] The mice were divided into homogenous group and the test compound was administered subcutaneously with one group receiving only the vehicle. The reaction time to pain was measured again 30 to 60 minutes after treatment and the dose which increased the reaction time 100% (DA100) 30 minutes after treatment as compared to the control animals was determined. The DA100 for the compound of Example 1 was 8 mg/kg.

T1 sequence (P41144 whole entry): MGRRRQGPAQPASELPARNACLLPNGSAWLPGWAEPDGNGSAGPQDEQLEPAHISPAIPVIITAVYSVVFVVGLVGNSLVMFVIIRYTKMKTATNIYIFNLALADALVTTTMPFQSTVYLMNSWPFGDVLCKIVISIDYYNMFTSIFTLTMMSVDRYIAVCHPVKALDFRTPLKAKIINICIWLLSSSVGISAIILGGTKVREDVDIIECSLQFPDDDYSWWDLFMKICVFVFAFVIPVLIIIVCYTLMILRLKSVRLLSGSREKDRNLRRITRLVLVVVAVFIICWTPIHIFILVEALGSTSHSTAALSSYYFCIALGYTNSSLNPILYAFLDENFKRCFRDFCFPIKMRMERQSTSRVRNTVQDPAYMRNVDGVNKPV

SMILES	LDO (dose at which there was no mortality after 8 days) (Acute toxicity)	IC50 (Kappa opiate receptor)	% Variation (urinary volume) (Diuretic activity)	% elongation of time of the appearance of the cardiac rhythm troubles [1]	ED (100% increase in reaction time) [2]
CN(C(=O)Cc1cccc2ccccc12)[C@@H]1c2ccccc2C[C@H]1N1CCCC1 (racemic) [Example 3, trans (±) N-[2,3-dihydro-2-(1-pyrrolidinyl)-1H-inden-1-yl]-N-methyl-1-naphthalene-acetamide]	100 mg/kg	4.9 nM	+267%	–	–
CN(C(=O)Cc1cccc2sccc12)[C@@H]1c2ccccc2C[C@H]1N1CCCC1 (racemic) [Example 1, Trans (±) N-[2,3-dihydro-2-(pyrrolidin-1-yl)-1H-inden-1-yl]-N-methyl-4-benzo[b]thiophene-acetamide]	100 mg/kg	1.8 nM	+131%	+65%	8 mg/kg
CN(C(=O)Cc1ccc2ccccc2c1)[C@@H]1c2ccccc2C[C@H]1N1CCCC1 (racemic) [Example 4, Trans (±) N-[2,3-dihydro-2-(1-pyrrolidinyl)-1H-inden-1-yl]-N-methyl-2-naphthalene-acetamide]	200 mg/kg	–	–	–	–
